Assays:
[1] = system: cGAS activity in reporter THP1 cell line; test: Cellular assay to measure cGAS activity (ISRE-Gaussia luciferase reporter THP1 cells, ISD transfection); format: cell-based; settings: Homo sapiens, THP-1, 2 μg/mL ISD transfection, 16 hours, luciferase luminescence
Experimental: Cellular assay to measure cGAS activity: Reporter THP1 cell line harboring a gene encoding Gaussia Luciferase under the control of 5 tandem repeats of interferon-stimulated response elements (ISRE) fused to an ISG54 minimal promoter was used to test inhibition of cGAS activity by synthetic compounds in human cells. These cells were plated on 96-well plates at 0.3×10^6/well and incubated with serial dilutions of compounds or DMSO for 5 min, followed by transfection of 2 μg/mL of ISD (Interferon Stimulatory DNA, a 45 bp DNA oligo) or mock transfected using lipofectamine 2000 (Life Technology) method, according to manufacturer's instructions. 16 hours later, 15 μL of the media from each well was transferred to a new plate, 50 μL of solution containing 50 mM Hepes-NaOH, pH 6.5, 50 mM NaCl, 10 mM EDTA, 1 μM of coeleanterazine is added to each well and luminescence is measured immediately. Fold increase in luminescence compared to mock transfection was plotted against concentrations of each compound, and IC50 is calculated using Graphpad. To evaluate the specificity of a compound, the same procedure is performed except that cells are transfected with 2 μg/mL […] or infected with Sendai Virus (SeV) at 50 Unit/mL, which are known to activate the RIG-I-MAVS pathway. A specific inhibitory compound should inhibit interferon induction by DNA but have minimal effect on poly(I:C) or Sendai virus induced interferon reporter gene expression.
The letter codes for cGAS IC50 include: A (<2 μM); B (2-10 μM); C (>10 μM).

[2] = target: T1, recombinant human cGAS (aa147-522) (Homo sapiens, UniProt Q8N884); test: In vitro inhibition assay of cGAS activity (KinaseGlo, ATP consumption); format: biochemical; settings: Herring testis DNA, 6.6 μM ATP, 0.1 mM GTP, 37° C. 20 minutes
T1 construct: recombinant human cGAS (aa147-522); His6-SUMO (N, cleaved yes); made in house; host or cells: E. coli BL21/pLys
T1 sequence (Q8N884 147-522): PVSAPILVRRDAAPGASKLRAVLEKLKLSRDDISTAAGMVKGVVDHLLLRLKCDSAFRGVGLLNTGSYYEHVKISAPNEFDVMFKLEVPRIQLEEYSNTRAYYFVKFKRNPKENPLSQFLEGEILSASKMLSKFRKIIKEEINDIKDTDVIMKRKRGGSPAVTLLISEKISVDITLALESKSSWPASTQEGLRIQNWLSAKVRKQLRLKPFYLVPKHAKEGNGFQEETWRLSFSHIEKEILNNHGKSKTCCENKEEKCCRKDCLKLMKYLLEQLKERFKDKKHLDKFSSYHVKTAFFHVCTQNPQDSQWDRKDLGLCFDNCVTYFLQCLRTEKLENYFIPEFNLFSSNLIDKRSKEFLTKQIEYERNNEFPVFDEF
Experimental: Expression and Purification of Recombinant cGAS Protein: cDNA encoding full-length or amino acids 147-520 of human cGAS was inserted into a modified pET28a vector containing an in-frame His6-SUMO tag. The E. coli strain BL21/pLys harboring the plasmid was induced with 0.5 mM IPTG at 18° C. overnight. His6-SUMO tag was removed by a SUMO protease digestion following purification of the His6-SUMO-cGAS as described previously (Sun et al, 2013, Science 339, 786).
In vitro inhibition assay of cGAS activity: A 60 μL mixture containing 20 mM Tris-Cl, pH 7.5, 5 mM MgCl2, 0.2 mg/mL BSA, 0.01 mg/mL Herring testis DNA, 6.6 μM ATP, 0.1 mM GTP, 1.5 μg/mL of recombinant human cGAS (aa147-522) and serial dilutions of a test compound in DMSO is added to a 96-well plate and incubated at 37° C. for 20 minutes. At the end of reaction, 40 μL of KinaseGlo Max (Promega) is added and chemiluminescence was measured with a luminometer. Inhibitory effect of a compound is evaluated by plotting percentage of ATP consumption against logarithm of compound concentrations. IC50 value is calculated using GraphPad Prism 8 (GraphPad Software, Inc.).
The letter codes for cGAS IC50 include: A (<2 μM); B (2-30 μM); C (>30 μM).

| SMILES | IC50 [1] [nM] | IC50 [2] [nM] |
| --- | --- | --- |
| Cc1c(Br)ccc2c(-n3cncn3)cc(N3CCC[C@H]3COCCC(=O)O)nc12 [I-894] | < 2000 | < 2000 |
| O=C(O)CCOC[C@@H]1CCCN1c1cc(-n2cncn2)c2cc(Br)c(Cl)c(Cl)c2n1 [I-895] | < 2000 | < 2000 |
| O=C(O)CCOC[C@@H]1CCCN1c1cc(-n2ccnn2)c2ccc(Cl)c(Cl)c2n1 [I-900, (S)-3-((1-(7,8-dichloro-4-(1H-1,2,3-triazol-1-yl)quinolin-2-yl)pyrrolidin-2-yl)methoxy)propanoic acid] | < 2000 | < 2000 |
| O=C(O)CCOC[C@@H]1CCCN1c1cc(-c2ncn[nH]2)c2ccc(Br)cc2n1 [I-901, (S)-3-((1-(7-bromo-4-(4H-1,2,4-triazol-3-yl)quinolin-2-yl)pyrrolidin-2-yl)methoxy)propanoic acid] | > 10000 | 2000 to 30000 |
| O=C(O)CCOC[C@@H]1CCCN1c1cc(-c2cnco2)c2ccc(Br)cc2n1 [I-903, (S)-3-((1-(7-bromo-4-(oxazol-5-yl)quinolin-2-yl)pyrrolidin-2-yl)methoxy)propanoic acid] | 2000 to 10000 | < 2000 |
| O=C(O)CCOC[C@@H]1CCCN1c1cc(-c2cocn2)c2ccc(Cl)c(Cl)c2n1 [I-904] | > 10000 | > 30000 |
| O=C(O)CCOC[C@@H]1CCCN1c1cc(-c2cscn2)c2ccc(Cl)c(Cl)c2n1 [I-908] | > 10000 | > 30000 |
| O=C(O)CCOC[C@@H]1CCCN1c1cc(-c2cccc(O)c2)c2ccc(Cl)c(Cl)c2n1 [I-910] | > 10000 | > 30000 |
| COc1ccc(-c2cc(N3CCC[C@H]3COCCC(=O)O)nc3c(Cl)c(Cl)ccc23)cc1 [I-911] | > 10000 | > 30000 |
| COc1cccc(-c2cc(N3CCC[C@H]3COCCC(=O)O)nc3c(Cl)c(Cl)ccc23)c1 [I-912] | > 10000 | > 30000 |
| O=C(O)CCOC[C@@H]1CCCN1c1cc(-c2ccc(F)cc2)c2ccc(Cl)c(Cl)c2n1 [I-913] | > 10000 | > 30000 |
| O=C(O)CCOC[C@@H]1CCCN1c1cc(-c2cccc(F)c2)c2ccc(Cl)c(Cl)c2n1 [I-914] | > 10000 | 2000 to 30000 |
| O=C(O)CCOC[C@@H]1CCCN1c1cc(-c2cccnc2)c2ccc(Cl)c(Cl)c2n1 [I-915] | > 10000 | > 30000 |
| O=C(O)CCOC[C@@H]1CCCN1c1cc(-c2ccncc2)c2ccc(Cl)c(Cl)c2n1 [I-916] | > 10000 | > 30000 |
| O=C(O)CCOC[C@@H]1CCCN1c1cc(-c2cncnc2)c2ccc(Cl)c(Cl)c2n1 [I-917] | > 10000 | < 2000 |
| O=C(O)CCOC[C@@H]1CCCN1c1cc(-c2ccnnc2)c2ccc(Cl)c(Cl)c2n1 [I-918] | > 10000 | > 30000 |
| O=C(O)CCOC[C@@H]1CCCN1c1cc(N2CCNCC2)c2ccc(Cl)c(Cl)c2n1 [I-920] | > 10000 | > 30000 |
| CN1CCN(c2cc(N3CCC[C@H]3COCCC(=O)O)nc3c(Cl)c(Cl)ccc23)CC1 [I-921] | > 10000 | > 30000 |
| O=C(O)CCOC[C@@H]1CCCN1c1cc(C2=CCNC2)c2ccc(Cl)c(Cl)c2n1 [I-922] | > 10000 | > 30000 |
| O=C(O)CCOC[C@H]1CCCN1c1cc(-n2cncn2)c2cc(Br)c(Cl)c(Cl)c2n1 [I-925] | < 2000 | < 2000 |
| O=C(O)CCOC[C@H]1CC2(CC2)CN1c1cc(-n2cncn2)c2cc(Br)c(Cl)c(Cl)c2n1 [I-926] | < 2000 | < 2000 |
| C[C@H]1C[C@@H](COCCC(=O)O)N(c2cc(-n3cncn3)c3cc(Cl)c(Br)cc3n2)C1 [I-928] | < 2000 | < 2000 |
| O=C(O)[C@@H]1[C@@H](O)CCN1c1cc(-n2cncn2)c2cc(Cl)c(Br)cc2n1 [I-934] | > 10000 | < 2000 |
| O=C(O)CCOC[C@@H]1CCN(c2cc(-n3cncn3)c3cc(Cl)c(Br)cc3n2)C1 [I-935] | < 2000 | < 2000 |
| COC(=O)[C@@H]1[C@@H](O)CCN1c1cc(-n2cncn2)c2cc(Cl)c(Br)cc2n1 [I-936] | < 2000 | < 2000 |
| O=C(O)CCOC[C@@H]1CCN(c2cc(-n3cncn3)c3cc(Br)c(Cl)c(Cl)c3n2)C1 [I-937] | < 2000 | < 2000 |
| CCN(CCOCCC(=O)O)c1cc(-n2cncn2)c2cc(Br)c(Cl)c(Cl)c2n1 [I-938] | < 2000 | < 2000 |

Now from value to compound:

| IC50 [1] [nM] | IC50 [2] [nM] | SMILES |
| --- | --- | --- |
| < 2000 | < 2000 | O=C(O)CCOC[C@@H]1CCCN1c1cc(-n2cncn2)c2ccc(Cl)c(Cl)c2n1 [I-892] |
| < 2000 | < 2000 | O=C(O)CCOC[C@@H]1CCCN1c1cc(-n2cncn2)c2cc(Cl)c(Br)cc2n1 [I-893] |
| < 2000 | < 2000 | O=C(O)CCOC[C@@H]1CC2(CC2)CN1c1cc(-n2cncn2)c2cc(Cl)c(Br)cc2n1 [I-896] |
| < 2000 | < 2000 | O=C(O)CCOC[C@@H]1CC2(CC2)CN1c1cc(-n2cncn2)c2cc(Br)c(Cl)c(Cl)c2n1 [I-897] |
| < 2000 | < 2000 | O=C(O)CCOC[C@@H]1CC2(CC2)CN1c1cc(-n2cncn2)c2ccc(Cl)c(Cl)c2n1 [I-898] |
| < 2000 | < 2000 | O=C(O)CCOC[C@@H]1CCCN1c1cc(-c2cnn[nH]2)c2ccc(Cl)c(Cl)c2n1 [I-899, (S)-3-((1-(7,8-dichloro-4-(1H-1,2,3-triazol-4-yl)quinolin-2-yl)pyrrolidin-2-yl)methoxy)propanoic acid] |
| 2000 to 10000 | < 2000 | O=C(O)CCOC[C@@H]1CCCN1c1cc(-c2cnoc2)c2ccc(Cl)c(Cl)c2n1 [I-902] |
| > 10000 | > 30000 | O=C(O)CCOC[C@@H]1CCCN1c1cc(-c2ccsc2)c2ccc(Cl)c(Cl)c2n1 [I-905] |
| < 2000 | < 2000 | O=C(O)CCOC[C@@H]1CCCN1c1cc(-c2cnsc2)c2ccc(Cl)c(Cl)c2n1 [I-906] |
| < 2000 | < 2000 | O=C(O)CCOC[C@@H]1CCCN1c1cc(-c2cncs2)c2ccc(Cl)c(Cl)c2n1 [I-907] |
| > 10000 | > 30000 | O=C(O)CCOC[C@@H]1CCCN1c1cc(-c2cccc(CO)c2)c2ccc(Cl)c(Cl)c2n1 [I-909] |
| > 10000 | > 30000 | O=C(O)CCOC[C@@H]1CCCN1c1cc(N2CCOCC2)c2ccc(Cl)c(Cl)c2n1 [I-919] |
| > 10000 | 2000 to 30000 | O=C(O)CCOC[C@@H]1CCCN1c1cc(C2=CNCC2)c2ccc(Cl)c(Cl)c2n1 [I-923] |
| > 10000 | 2000 to 30000 | O=C(O)CCOC[C@H]1CCCN1c1cc(-n2cncn2)c2cc(Cl)c(Br)cc2n1 [I-924] |
| < 2000 | < 2000 | O=C(O)CCOC[C@@H]1C[C@@H]2C[C@@H]2N1c1cc(-n2cncn2)c2cc(Cl)c(Br)cc2n1 [I-927] |
| < 2000 | < 2000 | O=C(O)CCOC[C@@H]1C[C@H](C(F)(F)F)CN1c1cc(-n2cncn2)c2cc(Cl)c(Br)cc2n1 [I-929] |
| < 2000 | < 2000 | O=C(O)CCOC[C@@H]1C[C@@H]2C[C@@H]2N1c1cc(-n2cncn2)c2cc(Br)c(Cl)c(Cl)c2n1 [I-930] |
| < 2000 | < 2000 | O=C(O)CCOC[C@@H]1CCCN1c1cc(-n2cncn2)c2cc(Cl)c(Cl)cc2n1 [I-931] |
| < 2000 | < 2000 | O=C(O)CCOC[C@@H]1CCCN1c1cc(-n2cncn2)c2c(Cl)c(Cl)ccc2n1 [I-932] |
| < 2000 | < 2000 | COC(=O)[C@@H]1[C@@H](O)CCN1c1cc(-n2cncn2)c2cc(Br)c(Cl)c(Cl)c2n1 [I-933] |

— patent publication US12091387B2, “Quinoline cGAS antagonist compounds” (IMMUNESENSOR THERAPEUTICS, INC., priority 2022, dated 2024)
